A word on the IC50: it is the midpoint of a concentration-inhibition curve. Broadly, the CC50 is the concentration giving 50% cytotoxicity.

Several values for one entry are separate records, joined by “and”; a condition that tells them apart may be missing. Equal values may be shown once. Read-outs that look alike come from different tables or passages of the source.

The text below walks through data of patent US20230143345A1, “PHARMACEUTICAL COMPOSITION FOR PREVENTION OR TREATMENT OF DISEASES CAUSED BY SARS-COV-2” (DONG WHA PHARM. CO., LTD., priority 2020, published 2023).

Series [1] deals with SARS-CoV-2. The series can be described thus: microbe, parasite or virus in culture. It is filed as cell-based.
Another series has as its system Vero cell lines. In words: Cell viability of Vero cells in the SARS-CoV-2 inhibition experiment (Example 2).
The nature of series [2]: Cell viability of VERO cells by WST-1 assay (Example 3). Conditions: African green monkey.
The test system of series [3] is SARS-CoV-2. The series can be described thus: microbe, parasite or virus in culture. It is filed as cell-based. As to conditions: Severe acute respiratory syndrome coronavirus 2, read-out: SARS-CoV-2 virus 50% inhibitory ability (IC50 value); VERO cells infected at MOI 0.1 for one hour, then drug; culture fluid after 48 hours, qRT-PCR. (In general: Real-time PCR tracks product formation cycle by cycle.)

Where [4] appears, read: Severe acute respiratory syndrome coronavirus 2, Vero, 24 h, concentration 25 uM, Vero cells, 24 h, read-out: SARS-CoV-2 virus inhibitory ability (%, average ± standard deviation).
Where [5] appears, read: Severe acute respiratory syndrome coronavirus 2, Vero, 24 h, concentration 50 uM, Vero cells, 24 h, read-out: SARS-CoV-2 virus inhibitory ability (%, average ± standard deviation).
Where [6] appears, read: Severe acute respiratory syndrome coronavirus 2, Vero, 24 h, read-out: SARS-CoV-2 virus 50% inhibitory ability (IC50 value), Vero cells dosed while being infected, 24 h, compounds.
[7] abbreviates: Severe acute respiratory syndrome coronavirus 2, Vero, 24 h, read-out: SARS-CoV-2 virus 50% inhibitory ability (IC50 value).

In the case of `CCN(CC)CCCC(C)Nc1ccnc2cc(Cl)ccc12` (centres unmarked) [Chloroquine], the inhibition at 0.1 µM with SARS-CoV-2 [1] (Severe acute respiratory syndrome coronavirus 2, Vero, 24 h, concentration 0.10 uM, Vero cells, 24 h, read-out: SARS-CoV-2 virus inhibitory ability (%, average ± standard deviation)) is -2.83 ± 2.09%. In the series with SARS-CoV-2 [1] (Severe acute respiratory syndrome coronavirus 2, Vero, 24 h, concentration 0.20 uM, Vero cells, 24 h, read-out: SARS-CoV-2 virus inhibitory ability (%, average ± standard deviation)), the inhibition at 0.2 µM was -4.26 ± 0.03%. The inhibition at 0.39 µM in the series on SARS-CoV-2 [1] (Severe acute respiratory syndrome coronavirus 2, Vero, 24 h, concentration 0.39 uM, Vero cells, 24 h, read-out: SARS-CoV-2 virus inhibitory ability (%, average ± standard deviation)) is -2.86 ± 0.21%. Further, the inhibition at 1.56 µM in the series with SARS-CoV-2 [1] (Severe acute respiratory syndrome coronavirus 2, Vero, 24 h, concentration 1.56 uM, Vero cells, 24 h, read-out: SARS-CoV-2 virus inhibitory ability (%, average ± standard deviation)) is 3.52 ± 6.42%. The inhibition at 3.13 µM in the series on SARS-CoV-2 [1] (Severe acute respiratory syndrome coronavirus 2, Vero, 24 h, concentration 3.13 uM, Vero cells, 24 h, read-out: SARS-CoV-2 virus inhibitory ability (%, average ± standard deviation)) worked out at 61.1 ± 7.72%. The inhibition at 6.25 µM with SARS-CoV-2 [1] (Severe acute respiratory syndrome coronavirus 2, Vero, 24 h, concentration 6.25 uM, Vero cells, 24 h, read-out: SARS-CoV-2 virus inhibitory ability (%, average ± standard deviation)) was determined as 97.7 ± 0.16%. Further, the inhibition at 12.5 µM in the series with SARS-CoV-2 [1] (Severe acute respiratory syndrome coronavirus 2, Vero, 24 h, concentration 12.5 uM, Vero cells, 24 h, read-out: SARS-CoV-2 virus inhibitory ability (%, average ± standard deviation)) stood at 99.31 ± 0.39%. The inhibition at 25 µM in the series with SARS-CoV-2 [1] (setting [4]) was found to be 98.93 ± 0.07%. In the series with SARS-CoV-2 [1] (setting [5]), the inhibition at 50 µM was 99.4 ± 1%. Also, the IC50 in the series on SARS-CoV-2 [1] (setting [6]) came out at 8.78 µM. Moreover, the “Cell viability (%, average ± standard deviation)” value in the series with Vero cell lines (concentration 0.10 uM) is reported as 83.10 ± 6.34%; with Vero cell lines (concentration 0.20 uM) it was 87.70 ± 0.37%; with Vero cell lines (concentration 0.39 uM), 83.14 ± 3.44%; in the series on Vero cell lines (concentration 1.56 uM), 89.11 ± 4.21%; in the series with Vero cell lines (concentration 3.13 uM), 97.41 ± 1.82%; in the series on Vero cell lines (concentration 6.25 uM), 90.84 ± 3.72%. Also, the “Cell viability (%, average ± standard deviation)” value in the series with Vero cell lines (concentration 12.5 uM) was 83.63 ± 0.73%; in the series on Vero cell lines (concentration 25 uM), 71.29 ± 6.06%; with Vero cell lines (concentration 50 uM), 59.69 ± 1.38%.
Compound `CCN(CCO)CCCC(C)Nc1ccnc2cc(Cl)ccc12` (centres unmarked) [Hydroxy-chloroquine, reference compound] registered a CC50 at 48 h in series [2] of 160 µM. For the same compound, the IC50 in the series with SARS-CoV-2 [3] was found to be 9.33 µM.
Take `COc1cc2c(OC)c3c(c(-c4ccc5c(c4)OCO5)c2cc1OC)C(=O)OC3` [Justicidin-A, 9-benzo[1,3]dioxol-5-yl-4,6,7-trimethoxy-3H -naphtho[2,3-c]furan-1-one]: in the series on SARS-CoV-2 [1] (setting [7]), the IC50 was 0.159 µM. The inhibition at 0.1 µM with SARS-CoV-2 [1] (Severe acute respiratory syndrome coronavirus 2, concentration 0.10 uM, Vero cells, 24 h, read-out: SARS-CoV-2 virus inhibitory ability (%, average ± standard deviation)) was 25.7 ± 12.3%. The inhibition at 0.2 µM with SARS-CoV-2 [1] (Severe acute respiratory syndrome coronavirus 2, concentration 0.20 uM, Vero cells, 24 h, read-out: SARS-CoV-2 virus inhibitory ability (%, average ± standard deviation)) is 75.3 ± 4.37%. In the series with SARS-CoV-2 [1] (Severe acute respiratory syndrome coronavirus 2, concentration 0.39 uM, Vero cells, 24 h, read-out: SARS-CoV-2 virus inhibitory ability (%, average ± standard deviation)), the inhibition at 0.39 µM amounted to 95.2 ± 1.48%. For the same compound, the inhibition at […] in the series on SARS-CoV-2 [1] (Severe acute respiratory syndrome coronavirus 2, concentration 0.78 uM, Vero cells, 24 h, read-out: SARS-CoV-2 virus inhibitory ability (%, average ± standard deviation)) came to 99 ± 1.58%. In addition, the inhibition at 1.56 µM in the series with SARS-CoV-2 [1] (Severe acute respiratory syndrome coronavirus 2, concentration 1.56 uM, Vero cells, 24 h, read-out: SARS-CoV-2 virus inhibitory ability (%, average ± standard deviation)) worked out at 99 ± 0.57%. Also, the inhibition at 3.13 µM in the series on SARS-CoV-2 [1] (Severe acute respiratory syndrome coronavirus 2, concentration 3.13 uM, Vero cells, 24 h, read-out: SARS-CoV-2 virus inhibitory ability (%, average ± standard deviation)) turned out to be 100 ± 0.36%. Moreover, in the series on SARS-CoV-2 [1] (Severe acute respiratory syndrome coronavirus 2, concentration 6.25 uM, Vero cells, 24 h, read-out: SARS-CoV-2 virus inhibitory ability (%, average ± standard deviation)), the inhibition at 6.25 µM came to 99.6 ± 0.16%. For the same compound, the inhibition at 12.5 µM in the series with SARS-CoV-2 [1] (Severe acute respiratory syndrome coronavirus 2, concentration 12.5 uM, Vero cells, 24 h, read-out: SARS-CoV-2 virus inhibitory ability (%, average ± standard deviation)) was 98.1 ± 1.47%. In addition, the inhibition at 25 µM in the series with SARS-CoV-2 [1] (Severe acute respiratory syndrome coronavirus 2, concentration 25 uM, Vero cells, 24 h, read-out: SARS-CoV-2 virus inhibitory ability (%, average ± standard deviation)) is 95.3 ± 0.61%. Besides, the inhibition at 50 µM with SARS-CoV-2 [1] (Severe acute respiratory syndrome coronavirus 2, concentration 50 uM, Vero cells, 24 h, read-out: SARS-CoV-2 virus inhibitory ability (%, average ± standard deviation)) is 93.3 ± 1.69%. The “SARS-CoV-2 inhibitory ability (in words)” value in the series with SARS-CoV-2 [1] (Vero cells, comparison at IC50 values with Remdesivir, Lopinavir and Chloroquine) is “remarkably more excellent”. Moreover, the “Cell viability (%, average ± standard deviation)” value in the series with Vero cell lines (concentration 0.20 uM) is 97.6 ± 0.61%; in the series on Vero cell lines (concentration 0.39 uM) it was 101.3 ± 1.55%; in the series on Vero cell lines (concentration 1.56 uM) it was 97.4 ± 0.09%; in the series with Vero cell lines (concentration 3.13 uM) it was 98.4 ± 1.93%; with Vero cell lines (concentration 6.25 uM), 96.9 ± 3.33%; in the series on Vero cell lines (concentration 12.5 uM) it was 96.5 ± 0.20%. For the same compound, the “Cell viability (%, average ± standard deviation)” value in the series on Vero cell lines (concentration 25 uM) turned out to be 99.5 ± 1.81%; in the series with Vero cell lines (concentration 50 uM), 98.0 ± 3.04%.
With `Cc1cccc(C)c1OCC(=O)N[C@@H](Cc1ccccc1)[C@@H](O)C[C@H](Cc1ccccc1)NC(=O)[C@H](C(C)C)N1CCCNC1=O` [Lopinavir], in the series with SARS-CoV-2 [1] (setting [4]), the inhibition at 25 µM came out at 99.01 ± 0.02%. In addition, the inhibition at 50 µM with SARS-CoV-2 [1] (setting [5]) was found to be 98.2 ± 2.11%. For the same compound, the IC50 worked out at 12.6 µM with SARS-CoV-2 [1] (setting [6]) and 14.5 µM in the series with SARS-CoV-2 [1] (read-out: SARS-CoV-2 virus 50% inhibitory ability (IC50 value), Vero cells dosed while being infected, 24 h, compounds). Also, the “SARS-CoV-2 virus inhibitory ability (%, average ± standard deviation)” value with SARS-CoV-2 [1] (concentration 0.10 uM, Vero cells, 24 h, 0.1 µM) is 3.14 ± 0.24% and −0.2 ± 4.23%; with SARS-CoV-2 [1] (concentration 0.20 uM, Vero cells, 24 h, 0.2 µM) it was 0.2 ± 2.44%; in the series with SARS-CoV-2 [1] (concentration 0.39 uM, Vero cells, 24 h, 0.39 µM), −0.60 ± 2.75% and 1.2 ± 5.71%; with SARS-CoV-2 [1] (concentration 1.56 uM, Vero cells, 24 h, 1.56 µM), 0.79 ± 3.76% and 1.7 ± 0.27%; in the series on SARS-CoV-2 [1] (concentration 3.13 uM, Vero cells, 24 h, 3.13 µM) it was 3.03 ± 0.67% and 0.2 ± 6.78%; in the series on SARS-CoV-2 [1] (concentration 6.25 uM, Vero cells, 24 h, 6.25 µM), 3.38 ± 5.94% and −0.1 ± 1.27%. In addition, the “SARS-CoV-2 virus inhibitory ability (%, average ± standard deviation)” value in the series with SARS-CoV-2 [1] (concentration 25 uM, Vero cells, 24 h, 25 µM) came to 98.6 ± 0.28%; with SARS-CoV-2 [1] (concentration 50 uM, Vero cells, 24 h, 50 µM) it was 99.6 ± 0.57%.
Consider `CCC(CC)COC(=O)[C@H](C)N[P@](=O)(OC[C@H]1O[C@@](C#N)(c2ccc3c(N)ncnn23)[C@H](O)[C@@H]1O)Oc1ccccc1` [Remdesivir], for which, in the series on SARS-CoV-2 [1] (Severe acute respiratory syndrome coronavirus 2, Vero, 24 h, concentration 6.25 uM, read-out: SARS-CoV-2 virus inhibitory ability (%, average ± standard deviation)), the inhibition at 6.25 µM turned out to be 10.8 ± 43.8%. The inhibition at 12.5 µM in the series with SARS-CoV-2 [1] (Severe acute respiratory syndrome coronavirus 2, Vero, 24 h, concentration 12.5 uM, read-out: SARS-CoV-2 virus inhibitory ability (%, average ± standard deviation)) amounted to 63.6 ± 1.23%. Further, the inhibition at 25 µM in the series on SARS-CoV-2 [1] (Severe acute respiratory syndrome coronavirus 2, Vero, 24 h, concentration 25 uM, read-out: SARS-CoV-2 virus inhibitory ability (%, average ± standard deviation)) was found to be 84.6 ± 2.21%. Moreover, the inhibition at 50 µM in the series with SARS-CoV-2 [1] (Severe acute respiratory syndrome coronavirus 2, Vero, 24 h, concentration 50 uM, read-out: SARS-CoV-2 virus inhibitory ability (%, average ± standard deviation)) was found to be 94.38 ± 0.41%. Moreover, the IC50 with SARS-CoV-2 [1] (setting [7]) is 10.8 µM; in the series with SARS-CoV-2 [1] (read-out: SARS-CoV-2 virus 50% inhibitory ability (IC50 value)) it was 12.7 µM. Also, the “SARS-CoV-2 virus inhibitory ability (%, average ± standard deviation)” value in the series with SARS-CoV-2 [1] (concentration 0.10 uM, 0.1 µM) was −2.24 ± 7.45%; with SARS-CoV-2 [1] (concentration 0.20 uM, 0.2 µM), 2.60 ± 1.90% and 7.2 ± 0.17%; with SARS-CoV-2 [1] (concentration 0.39 uM, 0.39 µM), −1.29 ± 2.86% and 4.8 ± 4.21%; in the series on SARS-CoV-2 [1] (concentration 1.56 uM, 1.56 µM), 0.65 ± 5.05% and 7.4 ± 1.96%; with SARS-CoV-2 [1] (concentration 3.13 uM, 3.13 µM), 5.89 ± 3.28% and 11.8 ± 0.80%; with SARS-CoV-2 [1] (concentration 6.25 uM, 6.25 µM), 16.2 ± 2.56%. The “SARS-CoV-2 virus inhibitory ability (%, average ± standard deviation)” value is 47.9 ± 0.01% in the series with SARS-CoV-2 [1] (concentration 12.5 uM, 12.5 µM); 82.1 ± 1.40% with SARS-CoV-2 [1] (concentration 25 uM, 25 µM); 93.5 ± 1.80% with SARS-CoV-2 [1] (concentration 50 uM, 50 µM).
